Measured values: patent US20230097753A1, “ALPHA-HYDROXYLATED FATTY-ACID METABOLITES, MEDICAL USES AND USE AS BIOMARKERS” (UNIVERSITAT DE LES ILLES BALEARS, priority 2020, published 2023)

Key:
5xFAD mice = experiment: Radial arm maze test in 5xFAD model of Alzheimer's disease; format: in vivo, mouse; details: 20 mg/kg/day, 3 to 7 months of age
Method: FIG. 6. A, B and C: Chronic treatment with HPA acid or its prodrug, DHA-H, prevents cognitive decline typical of Alzheimer's disease in the murine transgenic model (5xFAD). Cognitive assessment was performed by the 8-arm Radial Labyrinth test. The animals received treatment between 3 and 7 months of age and the test was performed during the last month of treatment. During this test, the total errors made during the test (A), the reference memory errors (RME) (B) and the working memory errors (WME) (C) were taken into account. Each column represents the mean±SEM of errors during the last week of the radial labyrinth test. The black columns represent the errors made by WT mice. The blank columns represent the errors made by the 5xFAD transgenic mice treated with the vehicle (5% ethanol). Striped columns represent errors made by 5xFAD mice treated with DHA-H (20 mg/kg/day). Boxed columns represent errors made by 5xFAD mice treated with HPA (20 mg/kg/day). […] The bars represent the mean±standard error for each treatment condition and the statistical analysis was performed by unidirectional ANOVA and the Tukey multiple evaluation test: *p<0.05 when compared to healthy control (WT) and #p<0.05 when compared to 5xFAD control condition (treated with the vehicle). […]

MIA-PaCa 2 = experiment: IC50 in tumor cell cultures (cell survival, XTT / trypan blue); format: cell-based; details: Homo sapiens; MIA-PaCa 2 pancreatic cancer cell line
Method: (§1) Cell survival was analyzed in a Barker chamber using trypan blue vital exclusion staining (Scharlab) or by cell proliferation kit II (Roche). Briefly, the cells were seeded in 96-well plates at a density of 3 x 10^3 cells per well 24 h prior to treatment, and then cultured in the presence or absence of compounds of interest at the concentrations and for the times indicated in the figures. After different times, plaque viable cells were determined by the addition of XTT according to the manufacturers instructions. Cells were incubated at 37° C. in 5% CO2 until a constant color was developed and absorbance was recorded at 495 nm using a microplate reader with a reference wavelength of 650 nm (FLUOstar Omega, BMG LABTECH, Germany).
(§2) The anti-tumor activity of the different metabolites described in FIGS. 8 and 9 was determined by direct treatment with these molecules (HDA or C17:2 ω-6, HTA ω-3 or C17:3 ω-3, HTA ω-6 or C17:3 ω-6, NTA or C19:4 ω-6, NPA or C19:5 ω-3, and HPA or C21:5 ω-3) in tumor cell cultures, on which the IC50 value for each of these compounds was determined (Inhibitory Concentration 50: concentration of study compound that induces death of 50% of the tumor cell population).

A549 = experiment: as above; format: cell-based; details: A549 human lung adenocarcinoma cell line
Method: as §1, §2

Row | Compound | Cognition in 8-arm radial labyrinth test (total errors, RME, WME) (5xFAD mice) | IC50 (MIA-PaCa 2) | IC50 (A549)
1 | CCC=CCC=CCC=CCC=CCC=CCC=CCC(O)C(=O)O (stereo not shown) [DHA-H, 2-hydroxy-drocosahexaenoic acid] | cognitive improvement | – | –
2 | CC/C=C\C/C=C\C/C=C\C/C=C\C/C=C\CCCCC(=O)O [HPA, (6Z,9Z,12Z,15Z,18Z)-heneicosa-6,9,12,15,18-pentaenoic acid] | cognitive improvement | 58 ± 17 µM | 228 ± 3 µM
